The record followed here is patent US10161008B2, “miR-193a-3p and associated genes predict tumorigenesis and chemotherapy outcomes” (Genedia Biotech Co., Ltd., priority 2011, dated 2018).

In brackets after ≈: the same amount, converted by molar mass. Read-outs that look alike come from different tables or passages of the source.

One assay has as its system miR-193a-3p. Put plainly: qRT-PCR of miR-193a-3p after demethylation in QGY-7703. The conditions noted are these: QGY-7703, treated 2 and 4 days. It counts as cell-based, human. An excerpt:
A. The physical map of the miR-193 gene region for DNA methylation analysis. (FIG. 3A discloses SEQ ID NO: 23) B. The methylation state of each of 27 CpGs in the mock treated (Mock) and treated for 2 days (2D) and 4 days (4D). C. The methylation frequency in B (unit: mC/Total) is plotted. D. The methylation state of the miR-193a gene determined by methylation-specific PCR is shown. Control: the unmethylated (U) and methylated (M) control DNA, respectively. E. Relative miR-193a-3p level determined by qRT-PCR was plotted. (*P<0.05, **P<0.01).
RNA: Total RNA was isolated using TRIzol reagent (Invitrogen, USA). Complementary DNA synthesis was performed using a primeScript RT reagent kit (Tiangen Biotech Co., Ltd., Beijing, China) for the SYBR® Green-based real-time PCR analysis in Rotor-Gene™ 6000 system, Qiagen, Germany) of SRSF2, E2F1, ABCC8, and CASP2S/L. The expression of miR-193a-3p (Ribobio, Guangzhou, China) was assessed using the 2-Ct method with RNA content normalized to the U6 RNA (Ribobio, Guangzhou, China) and to β-actin for other genes and plotted. The high-throughput, quantitative nuclease protection based analysis (Bourzac K. M. et al. (2011) J Biotechnol, 154, 68-75; Pechhold S. et al. (2009) Nat Biotechnol, 27, 1038-1042) on a customized array that are designed for the simultaneous determination of the expression of 42 human miRs and 5 housekeeping genes was determined. […]
For orientation: Real-time PCR tracks product formation cycle by cycle.

In the next assay the test system is SMMC-7721 cells. Description: MTT-based IC50 determination in SMMC-7721. It counts as cell-based. To be noted: Homo sapiens. The protocol: (§1) The log phase of cell culture was obtained in Dulbecco modified Eagle medium (Invitrogen) containing 10% calf serum and 1% streptomycin-penicillin at 37° C. in 5% CO2. The thiazolyl blue tetrazolium […] cell proliferation assay was carried out as follows: 5×10^3 to 1×10^4 cells in triplicate were cultured into each well of a 96-well plate (in triplicate) for 72 h, followed by a 3-h 37° C. incubation after addition of 10 μL (5 mg/mL) MTT salt (Sigma, USA). The OD 570-nm reading was obtained; the mean and SD of the triplicate experiments were calculated and plotted (Fei Q. et al. (2008) Acta Biochim Biophys Sin (Shanghai), 40, 466-477).
(§2) The relative OD 570-nm readings (mean and SD) in each drug-treated set and the no-drug mock sample were calculated (%) and plotted against the logarithm of the drug concentration. The linear regression parameters were determined for each curve and the IC50 extrapolated (Andrisano V. et al. (2001) J Chromatogr B Biomed Sci Appl, 753, 375-383). Sources of the drugs are as follows: 5-FU, Shanghai Xudong Haipu Pharmaceutical, China; gemcitabine, Jiangsu Hansen Pharmaceutical, China; epirubicin, Shenzhen Main Luck Pharmaceutical, China; irinotecan, Aventis Pharmaceutical, Germany; paclitaxel, Bristol-Myers Squibb, USA; mitomycin, Hisun Pharmaceutical, China); docetaxel, Jiangsu Hengrui Medicine, China; vinorelbine, Yangzhou Aosaikang Pharmaceutical, China; and cisplatin, Qilu Pharmaceutical Factory, China.

The test system of a further assay is HepG2 cells. Put plainly: MTT-based IC50 determination in HepG2. Format: cell-based, human.
Assay [1] deals with Bcap-37 versus ZR-75-30 breast cancer cells. Description: IC50 screen of breast cancer cell lines. Format: cell-based, human. To be noted: Bcap-37 vs ZR-75-30.
Protocol: The log phase of cell culture was obtained in Dulbecco modified Eagle medium (Invitrogen) containing 10% calf serum and 1% streptomycin-penicillin at 37° C. in 5% CO2. The thiazolyl blue tetrazolium blue (MTT)-based cell proliferation assay was carried out as follows: 5×10^3 to 1×10^4 cells in triplicate were cultured into each well of a 96-well plate (in triplicate) for 72 h, followed by a 3-h 37° C. incubation after addition of 10 μL (5 mg/mL) MTT salt (Sigma, USA). The OD 570-nm reading was obtained; the mean and SD of the triplicate experiments were calculated and plotted (Fei Q. et al. (2008) Acta Biochim Biophys Sin (Shanghai), 40, 466-477).
The relative OD 570-nm readings (mean and SD) in each drug-treated set and the no-drug mock sample were calculated (%) and plotted against the logarithm of the drug concentration. The linear regression parameters were determined for each curve and the IC50 extrapolated (Andrisano V. et al. (2001) J Chromatogr B Biomed Sci Appl, 753, 375-383). […]
Assay [2] deals with CASP2L and CASP2S mRNAs of caspase 2. Description: qRT-PCR of caspase 2 splice forms in QGY-7703. It counts as cell-based, human. The conditions noted are these: QGY-7703, low dose 4 μg/mL, one day. The protocol: (§3) RNA: Total RNA was isolated using TRIzol reagent (Invitrogen, USA). Complementary DNA synthesis was performed using a primeScript RT reagent kit (Tiangen Biotech Co., Ltd., Beijing, China) for the SYBR® Green-based real-time PCR analysis in Rotor-Gene™ 6000 system, Qiagen, Germany) of SRSF2, E2F1, ABCC8, and CASP2S/L. The expression of miR-193a-3p (Ribobio, Guangzhou, China) was assessed using the 2-Ct method with RNA content normalized to the U6 RNA (Ribobio, Guangzhou, China) and to β-actin for other genes and plotted. The high-throughput, quantitative nuclease protection based analysis (Bourzac K. M. et al. (2011) J Biotechnol, 154, 68-75; Pechhold S. et al. (2009) Nat Biotechnol, 27, 1038-1042) on a customized array that are designed for the simultaneous determination of the expression of 42 human miRs and 5 housekeeping genes was determined. Only miR-193a-3p expression was shown.
(§4) In light of all the known so far, this ratio is very likely to be most robust indicator to 5-FU resistance of HCC. To determine the 5-FU impact in this system, this example treated both cell lines by 4 μg/mL (a low dose) and 300 μg/mL (a high dose) for one day, respectively. […] As expected, both RNA and protein of SRSF2 were elevated by a larger margin than E2F1 in both QGY-7703 and SMMC-7721 (FIGS. 8B, C and F). […]

Assay [3] shares this test system. Description: qRT-PCR of caspase 2 splice forms in SMMC-7721. To be noted: SMMC-7721, low dose 4 μg/mL, one day. Format: cell-based, human. The method, then: as §3, §4
Assay [4] deals with SMMC-7721 tumor xenografts. Description: SMMC-7721 tumor growth in nude mice. It counts as in vivo. The protocol: After transfection with 50 nM miR-193a-3p or mock antagomirs (Ribobio, China) for 24 h, SMMC-7721 cells were collected and subcutaneously injected into the left and right flanks (1.25×10^6 cells/point) of each nude mouse (10 total), respectively. On day 12 after cell injection, 5 mice received 5-FU (75 mg/kg mouse body weight) intraperitoneal and then twice again in 1 week. The remaining 5 mice received phosphate-buffered saline (PBS) as a mock treatment control. And at the same time, the right side of all mice tumor were intratumorally injected with miR-193a-3p antagomir and left side with mock antagomir (according to manufacture instruction, Ribobio). To monitor the tumor growth, the volume was measured with a Vernier caliper on days 12, 18, 25, and 32 and calculated as Volume=W^2×L×0.5 (W and L represent the largest and next largest tumor diameters [cm]) and then plotted. Mice were humanely sacrificed on day 32, and tumors were weighed and photographed. Immunostaining was performed for ki67, SFS2, and E2F1 expression in both tumors of mouse number 4 (mock treated) mouse number 6 (5-FU treated).

Another assay concerns QGY-7703 cells. Put plainly: MTT-based IC50 determination in QGY-7703. Format: cell-based, human. To be noted: for IC50: Homo sapiens. The protocol: as §1, §2
The mark [5] stands for this setting: antagomir treated SMMC-7721, 5-FU 75 mg/kg intraperitoneal, day 32.
The mark [6] stands for this setting: mock-transfected SMMC-7721, 5-FU 75 mg/kg intraperitoneal, day 32.

Protocol for HepG2 cells: The log phase of cell culture was obtained in Dulbecco modified Eagle medium (Invitrogen) containing 10% calf serum and 1% streptomycin-penicillin at 37° C. in 5% CO2. The thiazolyl blue tetrazolium blue (MTT)-based cell proliferation assay was carried out as follows: 5×10^3 to 1×10^4 cells in triplicate were cultured into each well of a 96-well plate (in triplicate) for 72 h, followed by a 3-h 37° C. incubation after addition of 10 μL (5 mg/mL) MTT salt (Sigma, USA).
The relative OD 570-nm readings (mean and SD) in each drug-treated set and the no-drug mock sample were calculated (%) and plotted against the logarithm of the drug concentration. […] Sources of the drugs are as follows: 5-FU, Shanghai Xudong Haipu Pharmaceutical, China; gemcitabine, Jiangsu Hansen Pharmaceutical, China; epirubicin, Shenzhen Main Luck Pharmaceutical, China; irinotecan, Aventis Pharmaceutical, Germany; paclitaxel, Bristol-Myers Squibb, USA; mitomycin, Hisun Pharmaceutical, China); docetaxel, Jiangsu Hengrui Medicine, China; vinorelbine, Yangzhou Aosaikang Pharmaceutical, China; and cisplatin, Qilu Pharmaceutical Factory, China.

For `Nc1ncn([C@H]2C[C@H](O)[C@@H](CO)O2)c(=O)n1` [5-Aza-2′-deoxycytidine], the “steady state level of miR-193a-3p” value in the assay on miR-193a-3p is listed as “raised the steady state level of miR-193a-3p”.

On to `O=c1[nH]cc(F)c(=O)[nH]1` [5-FU, 5-fluorouracil], for which the IC50 – broadly, the concentration that gives 50% inhibition – stood at 41 µg/mL (≈ 315 µM) in the assay with SMMC-7721 cells (SMMC-7721, 72 h, MTT, read-out: IC50 to 5-FU); 13.4 µg/mL (≈ 103 µM) in the assay on SMMC-7721 cells (SMMC-7721, miR-193a-3p antagomir-transfected SMMC-7721, read-out: 5-FU IC50); 46.7 µg/mL (≈ 359 µM) with SMMC-7721 cells (SMMC-7721, mock-transfected SMMC-7721, read-out: 5-FU IC50); 1.45 µg/mL (≈ 11.1 µM) in the assay with HepG2 cells (Homo sapiens, HepG2, 72 h, MTT, read-out: IC50 to 5-FU); 0.39 µg/mL (≈ 3 µM) in the assay with QGY-7703 cells (QGY-7703, 72 h, MTT, read-out: IC50 to 5-FU); 2.22 µg/mL (≈ 17.1 µM) in the assay with QGY-7703 cells (QGY-7703, SRSF2 siRNA-transfected QGY-7703, read-out: IC50 of 5-FU). The IC50 in the assay with QGY-7703 cells (QGY-7703, miR-193a-3p mimic-transfected QGY-7703, read-out: 5-FU IC50) was 5.29 µg/mL (≈ 40.7 µM); in the assay with QGY-7703 cells (QGY-7703, mock mimic-transfected QGY-7703, read-out: 5-FU IC50), 0.72 µg/mL (≈ 5.54 µM); in the assay with QGY-7703 cells (QGY-7703, mock siRNA-transfected QGY-7703, read-out: IC50 of 5-FU) it was 0.68 µg/mL (≈ 5.23 µM). Further, the “IC50 of HepG2 lower than SMMC-7721” value in the assay on HepG2 cells (HepG2 vs SMMC-7721) is 27.3 fold. Also, in assay [1], the “Bcap-37 more resistant than ZR-75-30 (relative IC50)” value is recorded as 69.0 fold. The results for the “CASP2L RNA, fold of the untreated level” value in assay [2] and in assay [3] were 14.62 fold and 7.38 fold, respectively. Besides, the “CASP2S RNA, fold of the untreated level” value in assay [2] was 1.46 fold; in assay [3], 1.97 fold. For the same compound, the tumor volume in assay [4] (setting [5]) was determined as 0.29 cm^3; in assay [4] (mock-transfected SMMC-7721, 5-FU 75 mg/kg intraperitoneal, day 25) it was 0.45 cm^3; in assay [4] (setting [6]), 0.89 cm^3. Besides, the tumor weight in assay [4] (setting [5]) came to 0.37 g; in assay [4] (setting [6]), 0.82 g. In addition, the “IC50 of QGY-7703 lower than that of SMMC-7721” value in the assay with QGY-7703 cells (QGY-7703 vs SMMC-7721) was “approximately 105.2 fold”.
